Assay results published in patent publication US20090012014A1, “Compound, Composition and a Process Thereof” (INDUS BIOTECH PVT. LTD, priority 2007, published 2009).
Values joined by “and” are separate entries in the source; they are usually repeats but may differ in a detail not shown here. Equal entries are not always repeated. Where two headings read alike, the source gives them in different places. Marks after values point to notes of the source that are not given here.

Assays:
FCA induced arthritis = experiment: Chronic study: FCA (Freunds Complete Adjuvant) induced arthritis; type: in vivo, Swiss Wistar rats; settings: for Anti-inflammatory activity (% Inhibition) in FCA induced arthritis Day 18: treatment from 13th day
Protocol: (§1) This activity mimics the onset of autoimmune damage to joints and tests the efficiency of drug against this damage. Leflunamide is taken as positive control. Here Swiss Wistar rats are treated with Freunds Complete Adjuvant (CFA) to induce chronic inflammation symptoms similar to rheumatis diseases. The symptoms appear by 13th day. The drug treatment is started from 13th day to 23rd day for 10 days.
In addition, a disseminated arthritic reaction (secondary response) developed from […] alter FCA injection. The swelling was observed both in the injected paw and in the non-injected contra lateral paw. The reduction of the planter volume was statistically significant for both hind legs. The test compound gave a very impressive reduction of 52% at 100 mg per kg dose which is statistically significant. This compared very well with DMARD drug Leflunomide. However, Leflunomide is highly nephrotoxic and cannot be administered for a long time.

C-reactive protein = C-reactive protein test (CRP test kit) in FCA arthritis model; type: in vivo, Swiss Wistar rats; settings: for C-reactive protein After 10 Day Treatment / C-reactive protein Before Treatment: CRP test kit, precipitate
Protocol: This activity mimics the onset of autoimmune damage to joints and tests the efficiency of drug against this damage. Leflunamide is taken as positive control. Here Swiss Wistar rats are treated with Freunds Complete Adjuvant (CFA) to induce chronic inflammation symptoms similar to rheumatis diseases. The symptoms appear by 13th day. The drug treatment is started from 13th day to 23rd day for 10 days. […] In this method the CRP test kit ([…], Dreadnought Trading Estate Bridgeport Dorset DT6 5BU UK) was used for the measurement of CRP. The results are expressed either […] or -ve depending on the formation of precipitate Normal range of CRP: up to 6 mg/L. Below this level is considered to be negative.

[1] = system: paw edema in Carrageenan model; experiment: Acute study: Carrageenan induced paw edema; type: in vivo, Swiss Wistar rats; settings: paw volume at 3 hrs
Protocol: These tests are for the inhibition of inflammation caused by prostaglandins in short period of time. This can be tested in animal (Swiss Wistar rats) as per well known protocols which are treated with Carrageenan. This model tests out anti-inflammatory activity caused by prostaglandin inhibition. Celecoxib is given as a positive control to do a comparison and evaluate the efficacy of anti-inflammatory purified extract as described above in Prostaglandin inhibition in 3 hrs.
Paw Volume measured is compared with Control group and standard drug, celecoxib. Paw volume initial to the paw volume at 1 h, 2 h, 3 h is measured and peak inhibition, which is at 3 hrs is noted down. In this model efficacy as well as dosage of drug is arrived by considering peak % inhibition. […] This is also not statistically significant.

Cotton pellet Granuloma = experiment: Sub acute study: cotton pellet granuloma; type: in vivo, Swiss Wistar rats; settings: dried pellet weight after 7 days
Protocol: This evaluates inflammation over a period of 7 days. This is done by classical animal model (in Swiss Wistar tats) of cotton pallet granuloma. Celecoxib is a positive control for comparison of the efficacy of Test Compound.
100 mg per kg is the optimal dose. A comparison is made with Celecoxib.

TNF-α = TNF-α level in serum of FCA induced arthritic rat; type: in vivo
Protocol: as §1
Effect of Test compound and standard drug Celecoxib on TNF-α level in FCA induced arthritis rat. The serum from the FCA induced arthritic rat was examined for Tumor necrosis factor alpha. The experimental protocol was same as example no.

gastric mucosa = experiment: Gastric ulcerogenic effects after repeated oral administration; type: in vivo, male Swiss Wistar rats
Source text: Gastric ulcerogenic effects of Test compound and celecoxib after repeated oral administration for 7 consecutive days to the male Swiss Wistar rats.
In the control group, structure of the gastric mucosa appears normal.

[2] = system: patients with rheumatoid arthritis
[3] = out of the total 70 patients recruited

Compound: Cc1oncc1C(=O)Nc1ccc(C(F)(F)F)cc1 [Leflunamide, reference compound]
- Anti-inflammatory activity (% Inhibition) in FCA induced arthritis Day 18 (FCA induced arthritis; Dose 10 mg/kg): 35.22* %
- Anti-inflammatory activity (% Inhibition) in FCA induced arthritis Day 23 (FCA induced arthritis; Dose 10 mg/kg, treatment 13th to 23rd day): 76.55** %
- C-reactive protein After 10 Day Treatment (C-reactive protein): Negative (Normal range of CRP: up to 6 mg/L. Below this level is considered to be negative)
- C-reactive protein Before Treatment (C-reactive protein): Negative (Normal range of CRP: up to 6 mg/L. Below this level is considered to be negative)

Compound: CC(COC1OC(CO)C(O)C(O)C1O)C(C)CC1(O)CC2CC3C4CC=C5CC(OC6OC(CO)C(O)C(O)C6OC6OC(C)C(O)C(O)C6O)CCC5(C)C4CCC3(C)C2C1C (stereo not drawn) [Test compound]
- Anti-inflammatory activity (% Inhibition) in Carrageenan model In 3 Hrs. ([1]; Dose 50 mg/kg): 26.49* %
- Anti-inflammatory activity (% Inhibition) in Carrageenan model In 3 Hrs. ([1]; Dose 100 mg/kg): 32.54* %
- Anti-inflammatory activity (% Inhibition) in Carrageenan model In 3 Hrs. ([1]; Dose 100 mg/kg, listed as test compound): 32.44%
- Anti-inflammatory activity (% Inhibition) in Carrageenan model In 3 Hrs. ([1]; Dose 200 mg/kg): 34.44* %
- Anti-inflammatory activity (% Inhibition) in Cotton pellet Granuloma (Cotton pellet Granuloma; Dose 50 mg/kg): 24.2* %
- Anti-inflammatory activity (% Inhibition) in Cotton pellet Granuloma (Cotton pellet Granuloma; Dose 100 mg/kg, 100 mg/kg): 33.2* %
- Anti-inflammatory activity (% Inhibition) in Cotton pellet Granuloma (Cotton pellet Granuloma; Dose 100 mg/kg, listed as test compound, 100 mg/kg): 32.3%
- Anti-inflammatory activity (% Inhibition) in Cotton pellet Granuloma (Cotton pellet Granuloma; Dose 200 mg/kg): 39.4** %
- Anti-inflammatory activity (% Inhibition) in FCA induced arthritis Day 18 (FCA induced arthritis; Dose 50 mg/kg): 18.04%
- Anti-inflammatory activity (% Inhibition) in FCA induced arthritis Day 23 (FCA induced arthritis; Dose 50 mg/kg, treatment 13th to 23rd day): 29.07* %
- Anti-inflammatory activity (% Inhibition) in FCA induced arthritis Day 18 (FCA induced arthritis; Dose 100 mg/kg): 32.38%
- Anti-inflammatory activity (% Inhibition) in FCA induced arthritis Day 23 (FCA induced arthritis; Dose 100 mg/kg, treatment 13th to 23rd day (text values print no day), 100 mg/kg): 52.81* %
- Anti-inflammatory activity (% Inhibition) in FCA induced arthritis Day 23 (FCA induced arthritis; Dose 100 mg/kg, treatment 13th to 23rd day (text values print no day), listed as test compound, 100 mg/kg): 52% and 56%
- Anti-inflammatory activity (% Inhibition) in FCA induced arthritis Day 18 (FCA induced arthritis; Dose 200 mg/kg): 25.41%
- Anti-inflammatory activity (% Inhibition) in FCA induced arthritis Day 23 (FCA induced arthritis; Dose 200 mg/kg, treatment 13th to 23rd day): 56.55* %
- C-reactive protein After 10 Day Treatment (C-reactive protein): Negative (Normal range of CRP: up to 6 mg/L. Below this level is considered to be negative)
- C-reactive protein Before Treatment (C-reactive protein): Negative (Normal range of CRP: up to 6 mg/L. Below this level is considered to be negative)
- C-reactive protein in FCA chronic arthritis model (in words) (C-reactive protein; after treatment): decrease in C-reactive protein
- Concentration of TNF-α in pg/mL Day 0 (TNF-α; Day 0): 36.8 pg/mL
- Concentration of TNF-α in pg/mL Day 13 (TNF-α; Day 13): 45.3 pg/mL
- Concentration of TNF-α in pg/mL Day 21 (TNF-α; Day 21): 36.1 pg/mL
- Concentration of TNF-α in pg/mL Day 21 (TNF-α; Day 21, listed as experimental drug): inhibits TNF-α
- Mean score of Lesion intensity (gastric mucosa; Dose 200 mg/kg p.o., 7 consecutive days): Nil
- Average of no. of ulcer per animal (gastric mucosa; rat, in vivo, po, 200 mg/kg): Nil
- No. of animals with ulcer (%) (gastric mucosa; rat, in vivo, po, 200 mg/kg): Nil
- Ulcer Index (UI) (gastric mucosa; rat, in vivo, po, 200 mg/kg): Nil
- HAQ (Health Assessment Questionnaire) 12 mths (mean) ([2]; 12 months): 4.4
- JCSW (Joint count swelling) 12 mths (mean) ([2]; 12 months): 1.6
- JCPT (Joint Count Pain/Tenders) 12 mths (mean) ([2]; 12 months, 16 mg per kg body weight): 5.5
- CRP (C Reactive Protein), nephlometry, over time ([2]; 12 months, FIG. 2, listed as test compound): reduction
- RF (Rheumatoid factor) Titre, nephlometry, over time ([2]; 12 months, FIG. 3, listed as test compound): reduction
- ESR 12 mths (mean) ([2]; 12 months, Westergren): 66
- painVAS (pain visual analogue scale) 12 mths (mean) ([2]; 12 months, scale 0-10 cms): 3.6
- patGlobal (patient global assessment) 12 mths (mean) ([2]; 12 months, scale 0-10 cms): 3.4
- phyGlobal (physician global assessment) 12 mths (mean) ([2]; 12 months, scale 0-10 cms): 2.6
- HAQ (Health Assessment Questionnaire) Baseline (mean) ([2]; Baseline): 8.8
- HDL BASELINE ([2]; Baseline): 44.6
- LDL BASELINE ([2]; Baseline): 117.08
- HDL/LDL BASELINE ([2]; Baseline ratio): 0.41
- JCSW (Joint count swelling) Baseline (mean) ([2]; Baseline, 66 joints): 9.5
- JCPT (Joint Count Pain/Tenders) Baseline (mean) ([2]; Baseline, 68 joints, 16 mg per kg body weight): 24.3
- ESR Baseline (mean) ([2]; Baseline, Westergren): 61.4
- painVAS (pain visual analogue scale) Baseline (mean) ([2]; Baseline, scale 0-10 cms): 6.6
- patGlobal (patient global assessment) Baseline (mean) ([2]; Baseline, scale 0-10 cms): 6.4
- phyGlobal (physician global assessment) Baseline (mean) ([2]; Baseline, scale 0-10 cms): 5.7
- Patients in Clinical Remission: Duration (Months) ([2]; Patient No. 019): 8 Months
- Patients in Clinical Remission: Duration (Months) ([2]; Patient No. 035*, ACR remission, ESR <30 mm): 3 Months
- Patients in Clinical Remission: Duration (Months) ([2]; Patient No. 037*, ACR remission, ESR <30 mm): 3 Months
- Patients in Clinical Remission: Duration (Months) ([2]; Patient No. 038*, ACR remission, ESR <30 mm): 3 Months
- Patients in Clinical Remission: Duration (Months) ([2]; Patient No. 049): 5 Months
- Patients in Clinical Remission: Duration (Months) ([2]; Patient No. 051): 2 Months
- Patients in Clinical Remission: Duration (Months) ([2]; Patient No. 054*, ACR remission, ESR <30 mm): 3 Months
- Patients in Clinical Remission: Duration (Months) ([2]; Patient No. 057): 6 Months
- Patients in Clinical Remission: Duration (Months) ([2]; Patient No. 059): 5 Months
- Patients in Clinical Remission: Duration (Months) ([2]; Patient No. 112*, ACR remission, ESR <30 mm): 7 Months
- Serum albumin ([2]; at 12 months, printed 95% CI—0.35, −2.90, listed as test compound): significant improvements
- Blood Urea Nitrogen ([2]; at 12 months, printed (95%) CI 1.2, 35, listed as test compound): significant improvements
- ESR Mean change ([2]; baseline to 12 months): −3.05
- Adverse alterations in routine haematology, biochemistry (renal and hepatic) and metabolic parameters ([2]; human, in vivo): no significant adverse alterations
- HDL/LDL ratio of rheumatic patients after treatment ([2]; human, in vivo): 0.45
- Laboratory values for SGOT, SGTP, GGT, Serum bilirubin and Serum creatinine ([2]; human, in vivo): No significant changes
- Side-effects recorded ([2]; human, in vivo): Minor side-effects
- HDL MEAN CHANGE ([2]; mean change from baseline): −1.57
- HDL/LDL MEAN CHANGE ([2]; mean change from baseline): −6.1
- LDL MEAN CHANGE ([2]; mean change from baseline): 12.7
- ACR 50 improvement response (patients responding) ([2]; one year study): 40%
- Patients who satisfied the ACR criteria for remission that also includes the ESR response ([2]; one year study): 5 patients
- ACR 20 improvement response (patients responding) ([2]; one year study, 20% improvement in ACR factors): 80%
- All clinical efficacy measures (ACR core set), overall result in words ([2]; one year study, P<0.05, listed as test compound): significant disease modifying anti-arthritic action
- Patients completely asymptomatic as per ACR core set clinical measures (percent) [2, 3]: 11.9%
- Patients completely asymptomatic as per ACR core set clinical measures / remission of disease [2, 3]: 10 patients
